Experiment [1] has as its target T1, hENPP2 (UniProtKB/SwissProt Sequence ref Q13822) (Homo sapiens (Human), UniProt Q13822). The experiment can be described thus: FS3 hENPP2 assay (fluorogenic substrate FS-3). The class given is biochemical. To be noted: hENPP2, FS-3 as substrate. The method, then: Compound IC50 values are determined in a fluorescent hENPP2 (UniProtKB/SwissProt Sequence ref Q13822) biochemical assay using the fluorogenic autotaxin substrate FS-3 as substrate. FS-3 is a doubly labeled analog of LPC wherein the fluorophore is quenched through intramolecular energy transfer. Without hENPP2, the emission of the probe is quenched. If the substrate is hydrolyzed by hENPP2, the emission of the probe is not quenched anymore resulting in a fluorescence increase. Inhibition of hENPP2 by compounds will result in a decrease of the signal.
10 μL of a dilution series of compound, starting from 20 μM highest concentration, ⅕ dilution, is added to the wells. hENPP2 is used at a final concentration of 0.4 μg/mL or 0.64 μg/mL (it will be appreciated by the skilled person that the potency read out is independent of the enzyme concentration). The enzyme is diluted in 50 mM Tris-HCl pH 8.0, 250 mM NaCl, 5 mM KCl, 1 mM MgCl2, 1 mM CaCl2, 0.1% fatty acid free BSA in a total volume of 20 μL. Enzyme mixture is added to compounds and the resulting mixture is incubated for 30 min at room temperature under shaking. The reaction is started by the addition of 20 μL of 0.75 μM FS-3 diluted in the same buffer as described above and the mixture is incubated at 30° C. for 30 min. Fluorescence is read on the Envision (Excitation 485 nm, emission 520 nm).

Experiment [2] addresses T1, hENPP2. The experiment can be described thus: LPC hENPP2 assay (choline release, LPC as substrate). It is filed as biochemical. The procedure, abridged: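 Detection is coupled: choline oxidase produces peroxide, which HRP uses to form quinoneimine dye from TOOS and 4-aminoantipyrine, read at 555 nm. The reaction is stopped with 20 mM EGTA in the developer mix, then incubated 30 min at room temperature; inhibition lowers signal.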

A value given as a limit tells only on which side of the number the result lay.

In general, IC50 refers to the point on the concentration scale where inhibition reaches its midpoint. The low end stands for greater potency in that assay, the high end for weaker potency in that assay. Consider `CCc1nc2ccc(N3CCN(S(=O)(=O)CC)CC3)nn2c1N(C)c1nc(-c2ccc(F)cc2)cs1` [Cpd 71, N-(2-ethyl-6-(4-(ethylsulfonyl)piperazin-1-yl)imidazo[1,2-b]pyridazin-3-yl)-4-(4-fluorophenyl)-N-methylthiazol-2-amine], for which the 50% inhibitory concentration (IC50) in experiment [1] is 0.01 to 25 nM; in experiment [2], over 1000 nM.

For `CCc1nc2ccc(N3CC4CN(C(C)=O)CC4C3)nn2c1N(C)c1nc(-c2ccc(F)cc2)cs1` (centres unmarked) [Compound 124, 1-(5-(2-ethyl-3-((4-(4-fluorophenyl)thiazol-2-yl)(methyl)amino)imidazo[1,2-b]pyridazin-6-yl)hexahydropyrrolo[3,4-c]pyrrol-2(1H)-yl)ethanone], the results for the half-maximal inhibitory concentration (IC50) in experiment [1] and in experiment [2] were 0.01 to 25 nM and over 1000 nM, respectively.

For the compound `CCc1nc2ccc(N3CCC(O)C3)nn2c1N(C)c1nc(-c2ccc(F)cc2)cs1` (centres unmarked) [Cpd 129, 1-(2-ethyl-3-((4-(4-fluorophenyl)thiazol-2-yl)(methyl)amino)imidazo[1,2-b]pyridazin-6-yl)pyrrolidin-3-ol], the figures for the half-inhibitory concentration (IC50) in experiment [1] and in experiment [2] were 0.01 to 25 nM and over 1000 nM, respectively.

Consider `CCc1nc2ccc(N3CCC(O)C3)nn2c1N(C)c1nc(-c2ccc(F)cc2)c(C#N)s1` (centres unmarked) [Cpd 171, 2-((2-ethyl-6-(3-hydroxypyrrolidin-1-yl)imidazo[1,2-b]pyridazin-3-yl)(methyl)amino)-4-(4-fluorophenyl) thiazole-5-carbonitrile], for which the half-inhibitory concentration (IC50) fell in the range of 0.01 to 25 nM in experiment [1] and 100 to 500 nM in experiment [2].

As for `CCc1nc2ccc(C3CCN(CC(=O)N4CC(O)C4)CC3)nn2c1N(C)c1nc(-c2ccc(F)cc2)ccc1C#N` [Cpd 217, 2-((2-ethyl-6-(1-(2-(3-hydroxyazetidin-1-yl)-2-oxoethyl)piperidin-4-yl)imidazo[1,2-b]pyridazin-3-yl)(methyl)amino)-6-(4-fluorophenyl) nicotinonitrile], the half-maximal inhibitory concentration (IC50) in experiment [1] was 50 to 100 nM; in experiment [2] it was over 1000 nM.

As to `CCc1nc2ccc(N3CCC(CO)C3)nn2c1N(C)c1nc(-c2ccc(F)cc2)cs1` (centres unmarked) [Cpd 143, (1-(2-ethyl-3-((4-(4-fluorophenyl)thiazol-2-yl)(methyl)amino)imidazo[1,2-b]pyridazin-6-yl)pyrrolidin-3-yl)methanol], the IC50 was 0.01 to 25 nM in experiment [1] and over 1000 nM in experiment [2].

Take `CCc1nc2ccc(N3CCN(CC(=O)N(C)C)CC3)nn2c1N(C)c1nc(-c2ccc(F)cc2)c(C(=O)C(F)(F)F)s1` [Cpd 45, 2-(4-(2-ethyl-3-((4-(4-fluorophenyl)-5-(2,2,2-trifluoroacetoyl)thiazol-2-yl)(methyl)amino)imidazo[1,2-b]pyridazin-6-yl)piperazin-1-yl)-N,N-dimethylacetamide]: the figures for the half-inhibitory concentration (IC50) in experiment [1] and in experiment [2] were 0.01 to 25 nM and 0.01 to 100 nM, respectively.

With `CCc1nc2ccc(N3CCC(C(=O)NCCO)CC3)nn2c1N(C)c1nc(-c2ccc(F)cc2)cs1` [Compound 97, 1-(2-ethyl-3-((4-(4-fluorophenyl)thiazol-2-yl)(methyl)amino)imidazo[1,2-b]pyridazin-6-yl)-N-(2-hydroxyethyl)piperidine-4-carboxamide], the IC50 in experiment [1] fell in the range of 0.01 to 25 nM; in experiment [2], 500 to 1000 nM.

In the case of `CN(c1nc(-c2ccc(F)cc2)cs1)c1c(CO)nc2ccc(C3=CCN(S(C)(=O)=O)CC3)nn12` [Compound 195, (3-((4-(4-fluorophenyl)thiazol-2-yl)(methyl)amino)-6-(1-(methylsulfonyl)-1,2,3,6-tetrahydropyridin-4-yl)imidazo[1,2-b]pyridazin-2-yl)methanol], the results for the IC50 in experiment [1] and in experiment [2] were 0.01 to 25 nM and over 1000 nM, respectively.

Turning to `CCc1nc2cnc(C3CCNCC3)cn2c1N(C)c1nc(-c2ccc(F)cc2)c(C#N)s1` [Cpd 22, 2-((2-ethyl-6-(piperidin-4-yl)imidazo[1,2-a]pyrazin-3-yl)(methyl)amino)-4-(4-fluorophenyl) thiazole-5-carbonitrile], the IC50 was 25 to 50 nM in experiment [1] and over 1000 nM in experiment [2].

`CCc1nc2ccc(N3CC4CN(S(=O)(=O)CCCN(C)C)CC4C3)nn2c1N(C)c1nc(-c2ccc(F)cc2)cs1` (centres unmarked) [Cpd 126, N-(6-(5-(3-(dimethylamino)propylsulfonyl)hexahydropyrrolo [3,4-c]pyrrol-2(1H)-yl)-2-ethylimidazo[1,2-b]pyridazin-3-yl)-4-(4-fluorophenyl)-N-methylthiazol-2-amine]: the IC50 in experiment [1] lay within 0.01 to 25 nM; in experiment [2], 500 to 1000 nM.

Take `CCc1nc2ccc(N3CCN(CCC(N)=O)CC3)nn2c1N(C)c1nc(-c2ccc(F)cc2)cs1` [Compound 52, 3-(4-(2-ethyl-3-((4-(4-fluorophenyl)thiazol-2-yl)(methyl)amino)imidazo[1,2-b]pyridazin-6-yl)piperazin-1-yl)propanamide]: the IC50 lay in the range of 0.01 to 25 nM in experiment [1] and 500 to 1000 nM in experiment [2].

With `CCc1nc2ccc(N3CCN(CCCO)CC3)nn2c1N(C)c1nc(-c2ccc(F)cc2)cs1` [Cpd 49, 3-(4-(2-ethyl-3-((4-(4-fluorophenyl)thiazol-2-yl)(methyl)amino)imidazo[1,2-b]pyridazin-6-yl)piperazin-1-yl)propan-1-ol], the IC50 in experiment [1] is 0.01 to 25 nM; in experiment [2], 500 to 1000 nM.

As for `CCc1nc2ccc(N3CCC(N)CC3)nn2c1N(C)c1nc(-c2ccc(F)cc2)cs1` [Cpd 82, N-(6-(4-aminopiperidin-1-yl)-2-ethylimidazo[1,2-b]pyridazin-3-yl)-4-(4-fluorophenyl)-N-methylthiazol-2-amine], the values for the IC50 in experiment [1] and in experiment [2] were 0.01 to 25 nM and over 1000 nM, respectively.

On to `CCc1nc2ccc(N3CCN(CC(=O)NC(C)C)CC3)nn2c1N(C)c1nc(-c2ccc(F)cc2)cs1` [Cpd 54, 2-(4-(2-ethyl-3-((4-(4-fluorophenyl)thiazol-2-yl)(methyl)amino)imidazo[1,2-b]pyridazin-6-yl)piperazin-1-yl)-N-isopropylacetamide], for which the IC50 is 0.01 to 25 nM in experiment [1] and over 1000 nM in experiment [2].

With `CCc1nc2ccc(N3CCN(S(C)(=O)=O)C(CCO)C3)nn2c1N(C)c1nc(-c2ccc(F)cc2)cs1` (centres unmarked) [Cpd 72, 2-(4-(2-ethyl-3-((4-(4-fluorophenyl)thiazol-2-yl)(methyl)amino)imidazo[1,2-b]pyridazin-6-yl)-1-(methylsulfonyl)piperazin-2-yl) ethanol], the IC50 in experiment [1] was 0.01 to 25 nM; in experiment [2], 500 to 1000 nM.

`CCc1nc2ccc(N3CC4CN(S(=O)(=O)CCCCl)CC4C3)nn2c1N(C)c1nc(-c2ccc(F)cc2)cs1` (centres unmarked) [Cpd 125, N-(6-(5-(3-chloropropyl-sulfonyl)-hexahydropyrrolo [3,4-c]pyrrol-2(1H)-yl)-2-ethylimidazo[1,2-b]pyridazin-3-yl)-4-(4-fluorophenyl)-N-methylthiazol-2-amine]: the IC50 in experiment [1] is 0.01 to 25 nM; in experiment [2] it was over 1000 nM.

`CCc1nc2ccc(N3CCC(N4CCOCC4)CC3)nn2c1N(C)c1nc(-c2ccc(F)cc2)cs1` [Cpd 109, N-(2-ethyl-6-(4-morpholino-piperidin-1-yl)imidazo[1,2-b]pyridazin-3-yl)-4-(4-fluorophenyl)-N-methylthiazol-2-amine]: the IC50 was in the range of 0.01 to 25 nM in experiment [1] and 500 to 1000 nM in experiment [2].

`CCc1nc2ccc(C3CCN(CC(=O)N4CC(O)C4)CC3)nn2c1N(C)c1nccc(-c2ccc(F)cc2)n1` [Cpd 215, 2-(4-(2-ethyl-3-((4-(4-fluorophenyl)pyrimidin-2-yl)(methyl)amino)imidazo[1,2-b]pyridazin-6-yl)piperidin-1-yl)-1-(3-hydroxyazetidin-1-yl)ethanone]: the values for the IC50 in experiment [1] and in experiment [2] were 0.01 to 25 nM and 100 to 500 nM, respectively.
